Experimental data taken from patent publication US20250002843A1, “DERIVATION OF NAÏVE BOVINE EMBRYONIC STEM CELLS” (The Semex Alliance, priority 2021, published 2025).

System: ZP-free bovine embryo
Experiment: Bovine embryo attachment and outgrowth derivation (attachment, TE growth, ICM growth) in culture media
Assay type: cell-based
Details: for effect on derivation efficiency on substitution in t2iLGöY media: bovine IL-6 10 ng/ml for human LIF, CGP77675 2 uM for PD0325901
Experimental: The protocol for coating was as follows: • 1. 4 drops of 50 μL of coating solution: 0.1% gelatin or different concentrations of EHS-ECM, provided as a 100× concentrated solution, were applied onto Nunc surface 35 mm^2 cell culture dish (see FIG. 1). • 2. Coated substrates were incubated in a humidified 5% CO2 incubator at 38.5° C. for 1 hour. • 3. After incubation, excess coating solution was removed, 50 uL of cell culture media was applied to the coated area, covered with 4 mL of mineral oil, and 50 ul of additional media was added into each drop. • 4. Media was allowed to equilibrate in a humidified 5% O2, 5% CO2 incubator at 38.5° C. for 2 hours. • 5. After ZP removal and adaptation of embryos, 1 embryo was placed into 1 micro culture drop to start outgrowth derivation. • 6. First attachment rate was determined at 48 hours of outgrowth culture and first media change was done right after first attachment determination. • 7. Attachment rate and outgrowth rate were evaluated every day and media were changed right after daily evaluation.
The protocol for generating LbL ECM coated substrate was as follows: • 1. 40 ul of 0.1% Gelatin type A (diluted with DMEM/F12 basal medium) was applied to the surface of a Nunc 35 mm^2 cell culture dish to make small drops. • 2. The dish was incubated in a humidified 5% CO2 incubator at 38.5° C. for 1 hour. • 3. After incubation, the gelatin solution was removed and 50 ul of DPBS with Ca^2+ and Mg^2+ was added to wash excess gelatin from drops, followed by removal using aspiration. The washing step was repeated 2 times more. • 4. 50 ul of 1×EHS-ECM was applied to the gelatin coated area and incubated in a humidified 5% CO2 incubator at 38.5° C. for 1 hour. • 5. After incubation, EHS-ECM solution was removed, and 50 ul of media was applied; drops were covered with 4 ml of mineral oil, and 50 ul of additional media was added into each drop. • 6. The media was allowed to equilibrate in 5% CO2 incubator for 2 hours.
• 1. Thawing media and outgrowth media was mixed at a 1:1 ratio. • 2. After post-thaw recovery, embryos were washed twice in adaptation media (1:1 ratio of thawing media (e.g. embryo handling media and outgrowth media (e.g. DMEM))) before being put in the adaptation drop in the Dish #1 (FIG. 10). • 4. After 1 hour of adaptation, embryos were then washed four times by transferring to washing drops (outgrowth media) in the Dish #2. • 5. Embryos were then moved to the outgrowth media (DMEM) for plating. • 6. Adapted embryos were then plated into LbL coated micro drop.
FBS (10091, Gibco™), Knock-out Serum Replacement (10828-10, Gibco™), Serum Replacement (S0638, Sigma), B27 supplement (17504-044, Gibco™), and N2 supplement (17502-048, Gibco™) were used for this test. Traditional mouse 2iL media (DMEM/F12+1% MEM non-essential amino acid+2 mM Glutamax+100 µM beta-mercaptoethanol+100 IU penicillin/streptomycin+growth factors/inhibitors including 3 µM CHIR99021, 1 μM PD0325901 and 100 ng/ml LIF) was used as a basal medium for the serum tests of 10% FBS and 20% KOSR, and 1×-, 2×-SR groups. t2iLGöY media (1:1 mixture of DMEM/F12 and neurobasal medium+1% MEM non-essential amino acid+2 mM Glutamax+50 μg/ml BSA, fraction V+100 μM beta-mercaptoethanol+100 IU penicillin/streptomycin+growth factors/inhibitors including 1 μM CHIR99021, 1 μM PD0325901, 10 μM Y27632, 2.5 μM Gö6983 and 10 ng/ml LIF) was used for the testing of N2B27 group. […]

COc1cccc(-c2cn(-c3ccc(CCN4CCC(O)CC4)cc3)c3ncnc(N)c23)c1 [CGP77675]
effect on derivation efficiency on substitution in t2iLGöY media: negative effect

COc1ccc2c(c1)c(C1=C(c3c[nH]c4ccccc34)C(=O)NC1=O)cn2CCCN(C)C [Gö6983]
derivation efficiency on addition in t2iLGoY (side-by-side with 2i, 2iLFk and NHSM media): improved

O=C(NOC[C@H](O)CO)c1ccc(F)c(F)c1Nc1ccc(I)cc1F [PD0325901]
derivation efficiency when withdrawn from media (MEK inhibitor withdrawn, embryo cavity formation): decreased

insulin
hypoblast formation during outgrowth culture (addition of 20 μg/ml to the medium): not observed

B1: bovine IL-6: bovine IL-6, a member of the LIF superfamily (protein, UniProt P26892 30-208, looked up)
Interleukin-6: GPLGEDFKNDTTPGRLLLTTPEKTEALIKRMVDKISAMRKEICEKNDECESSKETLAENKLNLPKMEEKDGCFQSGFNQAICLIRTTAGLLEYQIYLDYLQNEYEGNQENVRDLRKNIRTLIQILKQKIADLITTPATNTDLLEKMQSSNEWVKNAKIILILRNLENFLQFSLRAIRMK
effect on derivation efficiency on substitution in t2iLGöY media: negative effect
